For 4 compounds, efflux pump substrate results are on record in patent publication US9428493B2, “Schweinfurthin analogues” (University of Iowa Research Foundation, priority 2012, dated 2016).

The test system of the data set is efflux pump. The experiment in a line: efflux pump substrate activity. The class given is in vitro ADME. From the text:
For the treatment of certain diseases, it may be beneficial to have a therapeutic agent that is not an efflux pump substrate. […] In one embodiment of the invention R^2 is (C1-C15)alkyl or (C2-C15) alkenyl. In one embodiment of the invention R^4 is (C1-C15)alkyl or (C2-C15)alkenyl. In one embodiment of the invention R^4 is (C1-C6)alkyl.
For the compound `COc1cc(/C=C/c2cc(OC)c3cc[nH]c3c2)cc2c1O[C@]1(C)CC[C@@H](O)C(C)(C)[C@H]1C2` [Compound 4, reference compound], the efflux pump substrate result is “found to be an efflux pump substrate”.

`COc1cc(/C=C/c2cc(O)c3ccn(C)c3c2)cc2c1O[C@]1(C)CC[C@@H](O)C(C)(C)[C@H]1C2` [Compound 7]: the efflux pump substrate entry is recorded as “diminished activity as efflux pump substrates compared to Compound 4”.

In the case of `COc1cc(/C=C/c2cc(O)c3c(c2)C[C@@H]2C(C)(C)[C@H](O)CC[C@@]2(C)O3)cc2c1ccn2C` [Compound 9], the efflux pump substrate entry is “diminished activity as efflux pump substrates compared to Compound 4”.

Regarding `COc1cc(/C=C/c2cc(O)c3c(CC=C(C)C)c[nH]c3c2)cc2c1O[C@]1(C)CC[C@@H](O)C(C)(C)[C@H]1C2` [Compound 10], the efflux pump substrate result is recorded as “diminished activity as efflux pump substrates compared to Compound 4”.
